The supplement of paper PMC10657565
± gives the uncertainty stated by the source.

Legend:
Assay in all cases: relative cell viability vs DMSO control (% of DMSO control); higher = less growth inhibition (higher viability)
Details in all cases: treatment time: 72 h
HCC1806 = test system: HCC1806
Experimental: (§1)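 Breast cancer cell lines (BT-474, HCC1806, SUM-159, SKBR-3) were seeded in triplicate in 96-well plates and treated 24 h after seeding with kinase inhibitors at 8 doses (3 nM to 30 uM). After 72 h, viability was read by CellTiter-Glo luminescence. Values were averaged over replicates and normalised to DMSO-only (0.1%) controls on each plate to give relative viability (% of DMSO).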

BT-474 = test system: BT-474
Experimental: as §1

SKBR3 = test system: SKBR3
Experimental: as §1

SUM159 = test system: SUM159
Experimental: as §1

SMILES	relative cell viability (HCC1806; 0.003 µM)	relative cell viability (HCC1806; 0.01 µM)	relative cell viability (HCC1806; 0.03 µM)	relative cell viability (HCC1806; 0.1 µM)	relative cell viability (HCC1806; 0.3 µM)	relative cell viability (HCC1806; 1 µM)	relative cell viability (HCC1806; 3 µM)	relative cell viability (HCC1806; 30 µM)	relative cell viability (BT-474; 0.003 µM)	relative cell viability (BT-474; 0.01 µM)	relative cell viability (BT-474; 0.03 µM)	relative cell viability (BT-474; 0.1 µM)	relative cell viability (BT-474; 0.3 µM)	relative cell viability (BT-474; 1 µM)	relative cell viability (BT-474; 3 µM)	relative cell viability (BT-474; 30 µM)	relative cell viability (SKBR3; 0.003 µM)	relative cell viability (SKBR3; 0.01 µM)	relative cell viability (SKBR3; 0.03 µM)	relative cell viability (SKBR3; 0.1 µM)	relative cell viability (SKBR3; 0.3 µM)	relative cell viability (SKBR3; 1 µM)	relative cell viability (SKBR3; 3 µM)	relative cell viability (SKBR3; 30 µM)	relative cell viability (SUM159; 0.003 µM)	relative cell viability (SUM159; 0.01 µM)	relative cell viability (SUM159; 0.03 µM)	relative cell viability (SUM159; 0.1 µM)	relative cell viability (SUM159; 0.3 µM)	relative cell viability (SUM159; 1 µM)	relative cell viability (SUM159; 3 µM)	relative cell viability (SUM159; 30 µM)
COC(=O)[C@@]1(O)C[C@H]2O[C@]1(C)n1c3ccccc3c3c4c(c5c6ccccc6n2c5c31)C(=O)NC4 [K-252a]	91.4 ± 5.5	81.8 ± 5.3	75.8 ± 6.2	62.3 ± 13	26.1 ± 8.3	13 ± 1.5	5.96 ± 2.1	0.762 ± 0.15	113 ± 7.6	106 ± 6.3	99.6 ± 7.7	91.6 ± 6.8	81.3 ± 4.5	58.9 ± 7.6	21.3 ± 4.6	1.44 ± 0.18	92.4 ± 4.2	90.4 ± 2	87.8 ± 4.2	81.8 ± 3.8	69.2 ± 4.8	54.3 ± 1.9	40 ± 2.8	1.88 ± 0.54	68.7 ± 6.9	63.8 ± 1.2	72.2 ± 3	34.7 ± 9.7	12.9 ± 2.6	6.47 ± 1.4	4.82 ± 0.85	2.12 ± 0.57
COCCN1CCN(Cc2ccc(-c3n[nH]c4c3C(=O)c3c(NC(=O)NN5CCOCC5)cccc3-4)cc2)CC1	96.5 ± 1.7	83.3 ± 2.7	42.8 ± 16	11.7 ± 1.4	9.5 ± 1.1	9.2 ± 0.52	9.82 ± 0.46	2.82 ± 1.3	97.7 ± 4.1	86 ± 3.1	66.7 ± 7	64.5 ± 6.1	69.8 ± 8.4	70.8 ± 15	75.2 ± 7.9	11.2 ± 0.36	84.2 ± 3.5	71 ± 7.2	50 ± 7	18.1 ± 8.7	8.06 ± 0.7	7.43 ± 0.26	5.73 ± 0.075	0.827 ± 0.17	97.1 ± 6.1	60.4 ± 30	14.3 ± 16	7.11 ± 1	8.54 ± 0.38	9.97 ± 0.5	7.7 ± 0.38	0.538 ± 0.063
CC(C)c1cc(CNc2nc(Nc3cc(C4CC4)[nH]n3)cc(N3CCN(C)CC3)n2)on1 [XL-228]																	103 ± 1.4	101 ± 2.3	101 ± 7.3	100 ± 6.3	115 ± 6.3	117 ± 3.9	52.2 ± 6.2	6.72 ± 0.86	74.7 ± 5.2	61.4 ± 1.7	54.32 ± 0.48	36.5 ± 1.4	26.8 ± 1.6	11 ± 0.61	6.45 ± 0.28	10.8 ± 0.58
